# In US8022225B2, “Triazole derivative” (Taisho Pharmaceutical Co., Ltd, priority 2004, dated 2011):
# What was measured:
# [1] = molecular target: T1, human Edg-1(S1P1) (Homo sapiens, UniProt P21453); experiment: Cell system binding test: inhibition of [3H]-S1P binding to Edg-1(S1P1) gene transferred HEK-293 cells; conditions: 10 μM compound, [3H]-S1P 10 nM, read-out: Cell system binding test % inhibition (10 μM)
# T1 construct: expressed in transfected cells; host or cells: HEK-293
# [2] = molecular target: T1, human Edg-1(S1P1); experiment: Membrane system binding test: inhibition of [33P]-S1P binding to the membrane fraction of Edg-1(S1P1) gene transferred HEK-293 cells; conditions: 10 μM compound; [33P]-S1P 0.1 nM; membrane fraction of Edg-1(S1P1) gene transferred HEK-293 cells; read-out: Membrane system binding test % inhibition (10 μM)
# Summary of the method: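 Membranes from HEK-293 cells transfected with Edg-1(S1P1) incubated 1 h at 30 °C with 0.1 nM [^33P]-S1P and compound at 10^−5 M (0.1% DMSO), pH 7.4 buffer with fatty acid-free BSA. Filter-bound radioactivity counted; inhibition rate calculated against no-compound binding, with untransfected-cell background subtracted.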
# T1 sequence (P21453 whole entry): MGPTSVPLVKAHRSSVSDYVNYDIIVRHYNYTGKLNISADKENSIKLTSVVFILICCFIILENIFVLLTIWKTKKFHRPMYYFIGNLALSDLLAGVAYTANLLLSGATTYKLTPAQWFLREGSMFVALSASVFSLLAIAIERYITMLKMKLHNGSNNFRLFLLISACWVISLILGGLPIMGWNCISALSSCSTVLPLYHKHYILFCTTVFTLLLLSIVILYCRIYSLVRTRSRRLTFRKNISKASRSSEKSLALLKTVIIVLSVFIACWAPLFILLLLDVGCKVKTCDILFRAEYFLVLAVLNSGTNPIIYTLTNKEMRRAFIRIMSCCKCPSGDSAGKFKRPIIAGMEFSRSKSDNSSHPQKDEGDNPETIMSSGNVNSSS
SMILES,inhibition at 10 µM [1] [%],inhibition at 10 µM [2] [%]
CCCCCCCCCCCCCCCCOc1nnc([C@@H](C)NS(=O)(=O)c2ccc(Cl)cc2)n1CC [Compound 192],75.5,105
CCn1c(OC)nnc1[C@H](C)NS(=O)(=O)c1cccc(Cl)c1 [Compound 193],108,64.4
CCCOc1nnc([C@@H](C)NS(=O)(=O)c2ccc(OC)cc2)n1CC [Compound 195],103,91.2
CCCOc1nnc([C@@H](C)NS(=O)(=O)c2ccc(C)cc2)n1CC [Compound 196],106,88.5
CCn1c(OC)nnc1[C@H](C)NS(=O)(=O)c1ccc(NC(C)=O)cc1 [Compound 198],92.5,46.7
CCn1c(OC)nnc1[C@@H](C)NS(=O)(=O)c1ccc(C(C)=O)cc1 [Compound 199],93,54.9
CCn1c(OC)nnc1[C@@H](C)NS(=O)(=O)c1ccc(Br)cc1 [Compound 200],97.4,93.3
CCn1c(OC)nnc1[C@H](C)NS(=O)(=O)c1ccc(C(C)(C)C)cc1 [Compound 201],92.6,45.3
CCCCS(=O)(=O)N[C@H](C)c1nnc(OC)n1CC [Compound 202],96.6,60.3
CCn1c(OC)nnc1[C@@H](C)NS(=O)(=O)c1cc(Br)c(Br)s1 [Compound 203],97.9,88.3
CCn1c(OC)nnc1[C@H](C)NS(=O)(=O)c1ccccc1Br [Compound 204],97.8,45.4
CCCCOc1ccc(S(=O)(=O)N[C@@H](C)c2nnc(OC)n2CC)cc1 [Compound 205],99.6,47.4
CCn1c(OC)nnc1[C@@H](C)NS(=O)(=O)c1cccc(Br)c1 [Compound 206],103,86.2
CCCCc1ccc(S(=O)(=O)N[C@H](C)c2nnc(OC)n2CC)cc1 [Compound 207],95.8,43.5
CCn1c(OC)nnc1[C@@H](C)NS(=O)(=O)c1ccc(Br)s1 [Compound 208],99.9,93
CCn1c(OC)nnc1[C@H](C)NS(=O)(=O)c1ccc(Cl)c([N+](=O)[O-])c1 [Compound 209],91.4,104
CCn1c(OC)nnc1[C@@H](C)NS(=O)(=O)CCCCl [Compound 210],91.8,46.6
CCn1c(OC)nnc1[C@@H](C)NS(=O)(=O)c1ccc(NC(C)=O)c(Cl)c1 [Compound 211],93.9,46.9
CCn1c(OC)nnc1[C@@H](C)NS(=O)(=O)c1ccccc1C#N [Compound 212],92.4,45.6
CCn1c(OC)nnc1[C@@H](C)NS(=O)(=O)c1cccc(C#N)c1 [Compound 213],96.2,66.1
CCn1c(OC)nnc1[C@@H](C)NS(=O)(=O)c1sc2ccc(Cl)cc2c1C [Compound 214],96.8,59.3

SMILES,inhibition at 10 µM [1] [%],inhibition at 10 µM [2] [%]
CCn1c(OC)nnc1[C@@H](C)NS(=O)(=O)c1ccc(C)c(Cl)c1 [Compound 215],98.3,94.4
CCn1c(OC)nnc1[C@@H](C)NS(=O)(=O)c1cc(Cl)cc(Cl)c1O [Compound 216],97.2,63.7
CCn1c(OC)nnc1[C@@H](C)NS(=O)(=O)c1cc(Cl)sc1Cl [Compound 217],97.4,62.3
CCn1c(OC)nnc1[C@@H](C)NS(=O)(=O)c1cccc2c(N(C)C)cccc12 [Compound 218],101,40.2
CCn1c(OC)nnc1[C@@H](C)NS(=O)(=O)c1cc(Cl)c(Cl)s1 [Compound 220],97.2,98
CCn1c(OC)nnc1[C@@H](C)NS(=O)(=O)c1ccc(OC)c(OC)c1 [Compound 221],89.9,56.1
CCc1ccc(S(=O)(=O)N[C@H](C)c2nnc(OC)n2CC)cc1 [Compound 222],92.9,71.8
CCn1c(OC)nnc1[C@@H](C)NS(=O)(=O)c1ccc(F)cc1 [Compound 223],95.5,70.4
CCn1c(OC)nnc1[C@@H](C)NS(=O)(=O)C(C)C [Compound 224],92.2,54.5
CCn1c(OC)nnc1[C@@H](C)NS(=O)(=O)c1ccc(OC)cc1 [Compound 226],92.3,42.4
CCn1c(OC)nnc1[C@@H](C)NS(C)(=O)=O [Compound 227],92.6,52
CCn1c(OC)nnc1[C@@H](C)NS(=O)(=O)c1cccc2ccccc12 [Compound 229],102,61.1
CCn1c(OC)nnc1[C@@H](C)NS(=O)(=O)c1ccc2ccccc2c1 [Compound 230],103,102
CCn1c(OC)nnc1[C@@H](C)NS(=O)(=O)c1ccccc1[N+](=O)[O-] [Compound 231],96.6,40.3
CCn1c(OC)nnc1[C@@H](C)NS(=O)(=O)c1ccc([N+](=O)[O-])cc1 [Compound 233],99.8,93.2
CCn1c(OC)nnc1[C@@H](C)NS(=O)(=O)CCc1cccc2ccccc12 [Compound 235],111,63.8
CCn1c(OC)nnc1[C@@H](C)NS(=O)(=O)c1c(F)c(F)c(F)c(F)c1F [Compound 237],95.4,52.5
CCn1c(OC)nnc1[C@@H](C)NS(=O)(=O)c1ccc(I)cc1 [Compound 238],99.1,79.1
CCn1c(OC)nnc1[C@@H](C)NS(=O)(=O)c1cccc2cccnc12 [Compound 240],93.4,70.3
CCn1c(OC)nnc1[C@@H](C)NS(=O)(=O)/C=C/c1ccccc1 [Compound 241],102,80.5
CCn1c(OC)nnc1[C@@H](C)NS(=O)(=O)c1cccs1 [Compound 242],100,49.9

SMILES,inhibition at 10 µM [1] [%],inhibition at 10 µM [2] [%]
CCn1c(OC)nnc1[C@@H](C)NS(=O)(=O)c1ccc(C)cc1 [Compound 243],102,66
CCn1c(OC)nnc1[C@@H](C)NS(=O)(=O)c1cccc(C(F)(F)F)c1 [Compound 245],96.8,87.7
CCn1c(OC)nnc1[C@@H](C)NS(=O)(=O)c1ccccc1C [Compound 246],98.1,61.8
CCn1c(OC)nnc1[C@@H](C)NS(=O)(=O)c1ccc(OC(F)(F)F)cc1 [Compound 247],95.3,52
CCn1c(OC)nnc1[C@@H](C)NS(=O)(=O)c1cccc(C)c1 [Compound 248],99.5,83.3
CCn1c(OC)nnc1[C@@H](C)NS(=O)(=O)c1ccc(C(F)(F)F)cc1 [Compound 249],101,86.3
CCn1c(OC)nnc1[C@@H](C)NS(=O)(=O)c1cc(S(=O)(=O)c2ccccc2)cs1 [Compound 250],88.7,42.9
CCn1c(OC)nnc1[C@@H](C)NS(=O)(=O)c1cnc(Cl)c(Br)c1 [Compound 251],102,106
CCn1c(OC)nnc1[C@@H](C)NS(=O)(=O)c1cc(Br)c(Cl)s1 [Compound 252],103,100
CCn1c(OC)nnc1[C@@H](C)NS(=O)(=O)c1ccsc1C(=O)OC [Compound 255],96.3,48.3
CCn1c(OC)nnc1[C@@H](C)NS(=O)(=O)c1cc(C(=O)OC)c(C)o1 [Compound 257],95.7,58.1
CCn1c(OC)nnc1[C@@H](C)NS(=O)(=O)c1ccccc1C(F)(F)F [Compound 260],89.4,46.9
CCn1c(OC)nnc1[C@@H](C)NS(=O)(=O)c1ccc(-c2ccccc2)cc1 [Compound 261],94.5,56.7
CCCc1ccc(S(=O)(=O)N[C@H](C)c2nnc(OC)n2CC)cc1 [Compound 262],96.5,68.8
CCn1c(OC)nnc1[C@@H](C)NS(=O)(=O)c1ccc(C)cc1OC [Compound 264],95.8,42.7
CCn1c(OC)nnc1[C@@H](C)NS(=O)(=O)c1cc(C(F)(F)F)cc(C(F)(F)F)c1 [Compound 265],98.2,69.5
CCn1c(OC)nnc1[C@@H](C)NS(=O)(=O)c1cc(Cl)cc(Cl)c1 [Compound 266],97,83
CCn1c(OC)nnc1[C@@H](C)NS(=O)(=O)c1cccc(Cl)c1C [Compound 267],99.9,89.4
CCn1c(OC)nnc1[C@@H](C)NS(=O)(=O)c1ccc(F)c(Cl)c1 [Compound 268],98.7,88.6
CCn1c(OC)nnc1[C@@H](C)NS(=O)(=O)c1cccc(OC)c1 [Compound 269],96.3,74.5
CCn1c(OC)nnc1[C@@H](C)NS(=O)(=O)c1cc(F)c(Br)cc1F [Compound 270],94.8,61.3
